What was measured:
PRKACA-DNAJB1 = molecular target: T1, PRKACA-DNAJB1 (Homo sapiens, UniProt P17612); test: PRKACA-DNAJB1 enzyme assay (EZ Reader 2 electrophoretic mobility shift); assay type: biochemical; conditions: read-out: Enz PRKACA-DNAJB1 IC50
T1 construct: DNAJB1 (fusion partner, P25685); the other entry of the earlier key: DNAJB1 (P25685, DnaJ homolog subfamily B member 1)
Method: (§1) A Perkin Elmer electrophoretic mobility shift platform (the EZ Reader 2) was used to assess the activity of test compounds against a kinase of interest. Fluorescently labeled substrate peptide was incubated in the presence of kinase, ATP, and the test compound, so that a portion of the peptide was phosphorylated by the enzyme. At the end of the reaction, the mix of phosphorylated (product) and non-phosphorylated (substrate) peptide containing solutions was passed through the microfluidic system of the Perkin Elmer EZ Reader 2 under an applied potential difference. The presence of the phosphate group on the product peptide provided a difference in mass and charge between those of the substrate peptide, resulting in a separation of the substrate and product pools in the sample. As the stopped solutions passed under the instrument's LED light the phosphorylated and un-phosphorylated fluorophore bound peptides were detected and resolved as separate peaks. The ratio between these peaks therefore reflected the test compound's impact on the kinase at that concentration in that well under those conditions.

[1] = test system: PKA (phosphorylation of VASP on Serine 157); test: Cellular potency assay: P-VASP(157) HTRF in Forskolin-stimulated Huh7 cells; assay type: cell-based; conditions: Homo sapiens, Huh-7, 4 hours compound, 5 μM Forskolin 30 minutes, read-out: Phos VASP(S157) IC50
Text: PKA directly phosphorylate VASP on Serine 157. Phosphorylation of VASP on Serine 157. P-VASP(157) was therefore used as a readout of PKA cellular activity. P-VASP(157) was detected with a HTRF assay, which is based on a TR-FRET sandwich immunoassay-based format comprising two specific anti-VASP antibodies following the manufactors protocol (Cisbio, Catalog No. 63ADK066PEH). PKA was activated in the assay by the addition of Forskolin (Sigma-Aldrich, Catalog No. F3917).
Dose response in Forskolin-stimulated human Huh7 cells was measured as follows. Briefly, Huh7 cells were plated at a density of 2×10^4 cells per well in a 384-well opti-well cell culture plate in 15 μl of serum- and phenol-free Dulbecco's Modified Eagle Medium (DMEM, Gibco Catalog No. 21063-029), and incubated for over night at 37° C., 5% CO2. The next day, 3 μl of a dosed concentration series of test compound (0.24%) DMSO final concentration) was added to the wells, and the cells were incubated for an additional 4 hours at 37° C., 5% CO2. 2 μl of Forskolin was added at a final concentration of 5 μM and the plates were incubated for 30 minutes at 37° C., 5% CO2. 5 μl of lysis buffer containing 1% HALT protease cocktail inhibitors (ThermoFisher, Catalog No. 78430), was added to the cells and the mixture was incubated under gentle shaking for 30 min at room temperature. 10 μl of this lysate was transferred to a 384-well proxi plate and 2.5 μL of the premixed antibody solution was added. An antibody solution was prepared by combining phopho-VASP cryptate antibody and phospho-VASP d2 antibody, at twenty-fold dilution into a buffer solution following the manufactors' protocol. The lysate and antibody mixture was incubated for either 3 h at room temperature or overnight at 4° C. The fluorescence emission at two different wavelengths (665 nm and 620 nm) was read on an EnVision instrument.

PRKACA = molecular target: T2, PRKACA (Homo sapiens, UniProt P17612); test: PRKACA assay at Km (EZ Reader 2 electrophoretic mobility shift); assay type: biochemical; conditions: 5 μM ATP (Km), 1 μM Kemptide, 90 minutes at 25 C; read-out: Enz PRKACA IC50
T2 construct: purchased Millipore 539482
Method: as §1
PRKACA assay at Km: In each well of a 384-well plate, 0.007 ng/ul (0.18 nM) of PRKACA enzyme (Millipore: 539482) was incubated in a total of 12.5 μl of buffer (100 mM HEPES pH 7.5, 0.015% Brij 35, 10 mM MgCl2, 1 mM DTT) with 1 μM Kemptide peptide substrate (5-FAM-LRRASLG) (Anaspec 29933) and 5 μM ATP at 25 C for 90 minutes in the presence or absence of a dosed concentration series of test compounds (1% DMSO final concentration). The reaction was stopped by the addition of 80 μl of Stop buffer (100 mM HEPES pH 7.5, 0.015% Brij 35, 35 mM EDTA and 0.2% of Coating Reagent 3 (Perkin Elmer)). The plate was then read on the EZ Reader 2 (protocol settings: −2.0 psi, upstream voltage −700, downstream voltage −2700, post sample sip 60 seconds). Data was normalized to 0% and 100% inhibition controls and the IC50 calculated using a 4-parameter fit using GraphPad Prism.

Compound | IC50 (PRKACA-DNAJB1) [nM] | IC50 [1] [nM] | IC50 (PRKACA) [nM]
O=C(N[C@H]1CCOc2ccc(F)cc21)c1ccc(-c2ccnc3[nH]ccc23)cc1 [Compound 114] | ≤ 1 | < 50 | ≤ 1
O=C(N[C@H]1CCOc2ccccc21)c1ccc(-c2ccnc3[nH]cc(F)c23)cc1 [Compound 115] | ≤ 1 | < 50 | ≤ 1
O=C(N[C@H]1CCOc2cccc(F)c21)c1ccc(-c2ccnc3[nH]ccc23)nc1 [Compound 117, (S)—N-(5-Fluorochroman-4-yl)-6-(1H-pyrrolo[2,3-b]pyridin-4-yl)nicotinamide] | ≤ 1 | < 50 | ≤ 1
CN(C)[C@@H]1Cc2ccccc2[C@H]1NC(=O)c1ccc(-c2ccnc3[nH]ccc23)cc1 [Compound 120, N-[(1R,2R)-2-(Dimethylamino)-2,3-dihydro-1H-inden-1-yl]-4-{1H-pyrrolo[2,3-b]pyridin-4-yl}benzamide] | ≤ 1 | < 50 | ≤ 1
Cc1c[nH]c2nccc(-c3ccc(C(=O)N[C@H]4CCOc5cccc(F)c54)cn3)c12 [Compound 121, (S)—N-(5-Fluorochroman-4-yl)-6-(3-methyl-1H-pyrrolo[2,3-b]pyridin-4-yl)nicotinamide] | 1.01 to 5 | 0.01 to 100 | ≤ 1
O=C(N[C@@H]1c2ccccc2OC[C@@H]1O)c1ccc(-c2ccnc3[nH]cc(F)c23)cc1 [Compound 123] | ≤ 1 | < 50 | ≤ 1
O=C(N[C@@H]1c2c(F)cccc2OC[C@@H]1O)c1ccc(-c2ccnc3[nH]ccc23)nc1 [Compound 126, N-[(3R,4R)-5-Fluoro-3-hydroxy-3,4-dihydro-2H-1-benzopyran-4-yl]-6-{1H-pyrrolo[2,3-b]pyridin-4-yl}pyridine-3-carboxamide] | 1.01 to 5 | < 50 | ≤ 1
O=C(N[C@@H]1c2c(F)cccc2OC[C@@H]1O)c1ccc(-c2ccnc3[nH]ccc23)cn1 [Compound 127] | 1.01 to 5 | < 50 | ≤ 1
O=C(N[C@H]1CCOc2cccc(F)c21)c1ccc(-c2ccnc3[nH]cc(F)c23)cc1 [Compound 128] | ≤ 1 | < 50 | ≤ 1
O=C(N[C@H]1CCOc2ccc(F)c(F)c21)c1ccc(-c2ccnc3[nH]ccc23)cc1 [Compound 129, N-[(4S)-5,6-Difluoro-3,4-dihydro-2H-1-benzopyran-4-yl]-4-{1H-pyrrolo[2,3-b]pyridin-4-yl}benzamide] | ≤ 1 | < 50 | ≤ 1
O=C(N[C@@H]1c2ccccc2C[C@H]1OCCO)c1ccc(-c2ccnc3[nH]ccc23)cc1 [Compound 134, N-[(1R,2R)-2-(2-Hydroxyethoxy)-2,3-dihydro-1H-inden-1-yl]-4-{1H-pyrrolo[2,3-b]pyridin-4-yl}benzamide] | ≤ 1 | < 50 | ≤ 1
Cc1c[nH]c2nccc(-c3ccc(C(=O)N[C@@H]4c5c(F)cccc5OC[C@@H]4O)cn3)c12 [Compound 135] | ≤ 1 | 0.01 to 100 | ≤ 1
O=C(N[C@@H]1c2c(Cl)cccc2OC[C@@H]1O)c1ccc(-c2ccnc3[nH]ccc23)nc1 [Compound 139] | 1.01 to 5 | 0.01 to 100 | ≤ 1
O=C(N[C@@H]1c2c(F)cccc2OC[C@@H]1O)c1ccc(-c2ccnc3[nH]cc(F)c23)nc1 [Compound 141] | ≤ 1 | 0.01 to 100 | ≤ 1
O=C(N[C@@H]1c2ccccc2C[C@H]1N1CCCC1)c1ccc(-c2ccnc3[nH]ccc23)cc1 [Compound 142] | ≤ 1 | < 50 | ≤ 1
O=C(N[C@@H]1c2c(ccc(F)c2F)C[C@@H]1O)c1ccc(-c2ccnc3[nH]cc(F)c23)nc1 [Compound 146] | ≤ 1 | 0.01 to 100 | ≤ 1
Cc1c[nH]c2nccc(-c3ccc(C(=O)N[C@H]4C[C@@H](C)Oc5ccc(F)c(F)c54)cn3)c12 [Compound 148, N-[(2R,4S)-5,6-Difluoro-2-methyl-3,4-dihydro-2H-1-benzopyran-4-yl]-6-{3-methyl-1H-pyrrolo[2,3-b]pyridin-4-yl}pyridine-3-carboxamide] | ≤ 1 | 0.01 to 100 | ≤ 1
C[C@@H]1Oc2ccc(F)c(F)c2[C@@H](NC(=O)c2ccc(-c3ccnc4[nH]ccc34)nc2)[C@@H]1O [Compound 150] | ≤ 1 | < 50 | ≤ 1
C[C@H]1Oc2ccc(F)c(F)c2[C@@H](NC(=O)c2ccc(-c3ccnc4[nH]ccc34)nc2)[C@H]1O [Compound 151] | ≤ 1 | < 50 | ≤ 1
Cc1c[nH]c2nccc(-c3ccc(C(=O)N[C@@H]4c5ccccc5C[C@H]4N4CCCC4)cn3)c12 [Compound 152] | 1.01 to 5 | 0.01 to 100 | 1.01 to 5
O=C(N[C@@H]1c2c(F)cc(C(F)F)cc2C[C@@H]1O)c1ccc(-c2ccnc3[nH]ccc23)nc1 [Compound 154] | ≤ 1 | < 50 | ≤ 1
O=C(N[C@@H]1c2c(F)cccc2C[C@H]1N1CCCC1)c1ccc(-c2ccnc3[nH]ccc23)nc1 [Compound 157, N-[(1R,2R)-7-Fluoro-2-(pyrrolidin-1-yl)-2,3-dihydro-1H-inden-1-yl]-6-{1H-pyrrolo[2,3-b]pyridin-4-yl}pyridine-3-carboxamide] | ≤ 1 | < 50 | ≤ 1
O=C(N[C@@H]1c2ccccc2C[C@H]1N1CCCC1)c1ccc(-c2ccnc3[nH]cc(F)c23)nc1 [Compound 159] | 1.01 to 5 | 0.01 to 100 | ≤ 1
Cc1c[nH]c2nccc(-c3ccc(C(=O)N[C@@H]4c5c(ccc(F)c5F)O[C@@H](C)[C@H]4O)cn3)c12 [Compound 160] | ≤ 1 | < 50 | ≤ 1
Cc1c[nH]c2nccc(-c3ccc(C(=O)N[C@@H]4c5c(ccc(F)c5F)O[C@H](C)[C@@H]4O)cn3)c12 [Compound 161] | ≤ 1 | 0.01 to 100 | ≤ 1
Cc1c[nH]c2nccc(-c3ccc(C(=O)N[C@@H]4c5c(F)cccc5C[C@H]4N4CCCC4)cn3)c12 [Compound 165] | ≤ 1 | < 50 | ≤ 1
O=C(N[C@@H]1c2c(F)cccc2C[C@H]1N1CC[C@@H](O)C1)c1ccc(-c2ccnc3[nH]ccc23)nc1 [Compound 167] | ≤ 1 | 0.01 to 100 | ≤ 1
O=C(N[C@@H]1c2c(F)cccc2C[C@H]1N1CCCC1)c1ccc(-c2ccnc3[nH]cc(F)c23)nc1 [Compound 169] | ≤ 1 | < 50 | ≤ 1
O=C(N[C@@H]1c2c(F)cccc2C[C@H]1N1CC[C@H](F)C1)c1ccc(-c2ccnc3[nH]ccc23)nc1 [Compound 170] | ≤ 1 | < 50 | ≤ 1
CO[C@@H]1CCN([C@@H]2Cc3cccc(F)c3[C@H]2NC(=O)c2ccc(-c3ccnc4[nH]ccc34)nc2)C1 [Compound 173] | ≤ 1 | 0.01 to 100 | ≤ 1
